Experimental data reported in patent US6608065B1, “Use of cGMP phosphodiesterase inhibitors in methods to treat female sexual dysfunction” (ICOS Corporation, priority 1995, dated 2003).

Row | Structure (SMILES) | melting point [°C]
1 | C[C@H]1C(=O)N2[C@H](c3ccc4c(c3)OCO4)c3[nH]c4ccccc4c3C[C@@H]2C(=O)N1C [Compound B, (3S, 6R, 12aR)-2,3,6,7,12,12a-hexahydro-2,3-dimethyl-6-(3,4-methylenedioxyphenyl)-pyrazino[2′, 1′:6,1]pyrido[3,4-b]indole-1,4-dione] | 307 to 309
2 | C[C@@H]1NC(=O)[C@H]2Cc3c([nH]c4ccccc34)[C@@H](c3ccc4c(c3)OCO4)N2C1=O [Example 3, (3S, 6R,12aR)-2,3,6,7,12,12a-Hexahydro-3-methyl-6-(3,4-methylenedioxyphenyl)-pyrazino[2′, 1′:6,1]pyrido[3,4-b]indole-1,4-dione] | 319 to 321
